Measurements reported in PMC9959130, “Effects of Side Chain and Peptide Bond Modifications on the Targeting Properties of Stabilized Minigastrin Analogs” (Pharmaceuticals, 2023).
Where two headings read alike, the source gives them in different places. Where a SMILES comes first, the peptide text is derived from it. [ ]: non-standard residue; d: D form. The star is where a group is joined. DOTA = O=C(O)CN1CCN(CC(=O)O)CCN(CC(=O)*)CCN(CC(=O)O)CC1; 1Nal = N[C@@H](Cc1cccc2ccccc12)C(=O)O; NMeNle = CCCC[C@H](NC)C(=O)O

Columns and labels:
[1] = In vitro stability in human serum (intact radiopeptide by radio-HPLC); type: in vitro ADME; conditions: radiolabeled peptide (111In where no radiometal named), fresh human serum, 37 °C, 24 h after incubation, n = 2; for Intact Radiopeptide in Human Serum (%): 1000 pmol/mL
Procedure: In vitro stability studies were performed in human serum (n = 2). The radiolabeled peptides (1000 pmol/mL) were incubated at 37 °C and a sample of 100 μL was taken at 1, 4, and 24 h after incubation. After the precipitation of proteins with ACN at 1:1.5 (v/v), centrifugation (14,000 rpm, 2 min, centrifuge 5424, Eppendorf AG, Germany) and dilution with water at 1:1 (v/v), an aliquot of 100 μL of this solution was analyzed by HPLC. Radioligand breakdown was monitored and the percentage of intact radiopeptide was calculated using Chromeleon Dionex Software (Version 7.2.9.11323). Additionally, the radiolabeled peptides (1000 pmol/mL) were incubated in PBS (n = 1) at room temperature to confirm the complex stability as a control.

[2] = Binding to serum proteins (incubation in human serum, Sephadex G-50 size exclusion chromatography); type: in vitro ADME; conditions: radiolabeled peptide (111In where no radiometal named), 37 °C, 24 h after incubation, Sephadex G-50, γ-counter, n = 2; for Binding to Serum Proteins (%): 500 pmol/mL
Procedure: Protein binding was determined by incubation of the radiolabeled peptides in human serum at 37 °C (500 pmol/mL, n = 2). For the time points of 1, 4, and 24 h after incubation, samples of 25 µL were subjected to Sephadex G-50 size exclusion chromatography (GE Healthcare Illustra, Little Chalfont, UK). The column and the eluate were measured using the γ-counter and the percentage of protein binding was calculated.

[3] = Distribution coefficient (LogD) in octanol/PBS; type: physicochemical; conditions: radiolabeled peptide (111In-labeled where the label names no radiometal), shake-flask octanol/PBS, 100 pmol/mL, 15 min shaking at 1500 rpm, γ-counter, mean ± SD, n = 8
Procedure: The distribution coefficient (LogD) in octanol/PBS was determined by mixing 0.5 mL of the radiolabeled DOTA peptides diluted in PBS (100 pmol/mL) and 0.5 mL octanol in a 1.5 mL microcentrifuge tube (n = 8). After shaking for 15 min (MS3 Basic, IKA, Staufen, Germany) at 1500 rpm and a waiting time of 10 min to ensure appropriate separation of the two phases, 100 µL aliquots of each phase were pipetted into 4.5 mL tubes. The tubes were measured using a γ-counter (2480 Wizard2 3″, PerkinElmer Life Sciences and Analytical Instruments, formerly Wallac Oy, Turku, Finland) and the LogD value was determined using following equation: LogD=Log(cpmoctanol phase/cpmPBS phase)

[4] = Biodistribution in BALB/c nude mice bearing A431-CCK2R/A431-mock xenografts; type: in vivo; conditions: female, athymic BALB/c nude, mouse, iv, 20 pmol, total radioactivity, ~20 pmol, 4 h p.i. (indium-111 or lutetium-177), mean ± SD n = 4; for tissue to tissue ratio at 4 h: BALB/c nude mice; for tissue uptake at 4 h: xenografted BALB/c nude mice, i.v.
Procedure: The overall biodistribution and tumor targeting properties of selected radiolabeled peptides were evaluated in female athymic BALB/c nude mice (Charles River, Sulzfeld, Germany, age of 7 to 9 weeks). After tumor induction with 2 × 10^6 A431-CCK2R or A431-mock cells (subcutaneously injected in 200 μL DMEM into the right and left flank) and a waiting period of 10–14 days (sufficient to achieve tumors of ∼0.25 g), mice were randomly divided into groups of four and treated with a bolus injection of 150 µL of the injectable solution containing the radiolabeled peptide via a lateral tail vein to achieve an injected radioactivity of 150–200 kBq and a total injected peptide amount of ~20 pmol (n = 4 for each radiopeptide). For DOTA-[(N-Me)1Nal^8]MGS5, additional biodistribution studies were performed with gallium-68 (~0.5 MBq, 20 pmol) and lutetium-177 (~0.5 MBq, 20 pmol). The animals were euthanatized by cervical dislocation at 1 h (gallium-68) or 4 h p.i. (indium-111/ lutetium-177). The tumors and other tissues (blood, lung, heart, muscle, spleen, intestine, liver, kidney, stomach, and pancreas) were dissected, weighed, and the radioactivity measured in the γ-counter. The rest of the body and a standard of the solution injected was also measured together with the collected samples. The percentage of injected activity per gram of tissue (% IA/g) and the tumor-to-organ activity ratio of selected tissues were calculated for each mouse and time point studied. Origin software (Microcal Origin 6.1, Northampton, MA, USA) was used for statistical analysis (independent t-test for two populations; significance level p < 0.05).

[5] = A431-CCK2R xenograft / blood, A431-CCK2R xenograft, read-out: tumor-to-organ ratio: blood
[6] = A431-CCK2R xenograft / kidney, A431-CCK2R xenograft, read-out: tumor-to-organ ratio: kidney
[7] = A431-CCK2R xenograft / stomach, A431-CCK2R xenograft, read-out: tumor-to-organ ratio: stomach
[8] = A431-CCK2R xenograft, read-out: Uptake in A431-CCK2R xenograft
[9] = A431-mock xenograft, read-out: Uptake in A431-mock xenograft
[10] = blood, read-out: Uptake in blood
[11] = heart, read-out: Uptake in heart
[12] = intestine, read-out: Uptake in intestine
[13] = kidneys, read-out: Uptake in kidneys
[14] = liver, read-out: Uptake in liver
[15] = muscle, read-out: Uptake in muscle
[16] = pancreas, read-out: Uptake in pancreas
[17] = spleen, read-out: Uptake in spleen
[18] = stomach, read-out: Uptake in stomach

| Structure (SMILES) | Intact Radiopeptide in Human Serum (%) [1] | Binding to Serum Proteins (%) [2] | LogD [3] | tissue to tissue ratio at 4 h [4, 5] | tissue to tissue ratio at 4 h [4, 6] | tissue to tissue ratio at 4 h [4, 7] | tissue uptake at 4 h [4, 8] | tissue uptake at 4 h [4, 9] | tissue uptake at 4 h [4, 10] | tissue uptake at 4 h [4, 11] | tissue uptake at 4 h [4, 12] | tissue uptake at 4 h [4, 13] | tissue uptake at 4 h [4, 14] | tissue uptake at 4 h ([4]; lung, read-out: Uptake in lung) | tissue uptake at 4 h [4, 15] | tissue uptake at 4 h [4, 16] | tissue uptake at 4 h [4, 17] | tissue uptake at 4 h [4, 18] | LogD ([3]; read-out: LogD) | further results |
| --- | --- | --- | --- | --- | --- | --- | --- | --- | --- | --- | --- | --- | --- | --- | --- | --- | --- | --- | --- | --- |
| CCCC[C@@H](C(=O)N[C@@H](CC(=O)O)C(=O)N[C@@H](Cc1cccc2ccccc12)C(N)=O)N(C)C(=O)[C@H](Cc1c[nH]c2ccccc12)NC(=O)CNC(=O)[C@H](Cc1ccc(O)cc1)NC(=O)[C@H](C)NC(=O)[C@@H](CCCCN)NC(=O)CN1CCN(CC(=O)O)CCN(CC(=O)O)CCN(CC(=O)O)CC1 [DOTA-[DLys^1]MGS5] ({DOTA}-[dK]AYGW[NMeNle]D[1Nal]-NH2) | 98.1 ± 1.1% | 27.8 ± 0.4% | −1.3 ± 0.1 |  |  |  |  |  |  |  |  |  |  |  |  |  |  |  |  |  |
| CCCC[C@@H](C(=O)N[C@@H](CC(=O)O)C(=O)N[C@@H](Cc1cccc2ccccc12)C(N)=O)N(C)C(=O)[C@H](Cc1c[nH]c2ccccc12)NC(=O)CNC(=O)[C@H](Cc1ccc(O)cc1)NC(=O)[C@H](C)NC(=O)[C@@H](CCCCN)NC(=O)CN1CCN(CC(=O)O)CCN(CC(=O)O)CCN(CC(=O)O)CC1 [[^111In]In-DOTA-[DLys^1]MGS5, metal not drawn] ({DOTA}-[dK]AYGW[NMeNle]D[1Nal]-NH2) |  |  |  | 176 ± 31.9 | < 2 | 4.69 ± 1.19 | 33.9 ± 9.53 %ID/g | 0.56 ± 0.27 %ID/g | 0.2 ± 0.09 %ID/g | 0.22 ± 0.06 %ID/g | 1.96 ± 0.87 %ID/g | ~20 %ID/g | 1.94 ± 0.52 %ID/g | 0.3 ± 0.11 %ID/g | 0.13 ± 0.05 %ID/g | 2.27 ± 1.2 %ID/g | 0.54 ± 0.12 %ID/g | 7.73 ± 3.49 %ID/g | -1.31 ± 0.11 |  |

Second part, led by results:

| Intact Radiopeptide in Human Serum (%) [1] | Binding to Serum Proteins (%) [2] | LogD [3] | tissue to tissue ratio at 4 h [4, 5] | tissue to tissue ratio at 4 h [4, 6] | tissue to tissue ratio at 4 h [4, 7] | tissue uptake at 4 h [4, 8] | tissue uptake at 4 h [4, 9] | tissue uptake at 4 h [4, 10] | tissue uptake at 4 h [4, 11] | tissue uptake at 4 h [4, 12] | tissue uptake at 4 h [4, 13] | tissue uptake at 4 h [4, 14] | tissue uptake at 4 h ([4]; lung, read-out: Uptake in lung) | tissue uptake at 4 h [4, 15] | tissue uptake at 4 h [4, 16] | tissue uptake at 4 h [4, 17] | tissue uptake at 4 h [4, 18] | LogD ([3]; read-out: LogD) | Structure (SMILES) | further results |
| --- | --- | --- | --- | --- | --- | --- | --- | --- | --- | --- | --- | --- | --- | --- | --- | --- | --- | --- | --- | --- |
| 54.0 ± 0.8% | 20.2 ± 1.6% | −3.2 ± 0.1 |  |  |  |  |  |  |  |  |  |  |  |  |  |  |  |  | CCCC[C@@H](C(=O)N[C@@H](CC(=O)O)C(=O)N[C@@H](Cc1ccccc1)C(N)=O)N(C)C(=O)[C@H](Cc1c[nH]c2ccccc12)NC(=O)CNC(=O)[C@H](Cc1ccc(O)cc1)NC(=O)[C@H](C)NC(=O)[C@@H](CCC(=O)O)NC(=O)CN1CCN(CC(=O)O)CCN(CC(=O)O)CCN(CC(=O)O)CC1 [DOTA-[Phe^8]MGS5] ({DOTA}-[dE]AYGW[NMeNle]DF-NH2) |  |
|  |  |  | 399 ± 89.6 | 6.04 ± 0.87 | 3.66 ± 0.64 | 25.4 ± 4.45 %ID/g | 0.17 ± 0.04 %ID/g | 0.06 ± 0.003 %ID/g | 0.08 ± 0.01 %ID/g | 0.95 ± 0.26 %ID/g | 4.21 ± 0.29 %ID/g | 0.66 ± 0.07 %ID/g | 0.13 ± 0.03 %ID/g | 0.04 ± 0.01 %ID/g | 1.84 ± 0.52 %ID/g | 0.18 ± 0.05 %ID/g | 7.03 ± 1.1 %ID/g | -1.71 ± 0.19 | CCCC[C@@H](C(=O)N[C@@H](CC(=O)O)C(=O)N[C@@H](Cc1ccc2ccccc2c1)C(N)=O)N(C)C(=O)[C@H](Cc1c[nH]c2ccccc12)NC(=O)CNC(=O)[C@H](Cc1ccc(O)cc1)NC(=O)[C@H](C)NC(=O)[C@@H](CCC(=O)O)NC(=O)CN1CCN(CC(=O)O)CCN(CC(=O)O)CCN(CC(=O)O)CC1 [[^111In]In-DOTA-[2Nal^8]MGS5, metal not drawn] | remaining at 24 h, 1000 pmol/mL [1]: > 90% |
|  |  |  | 69.9 ± 38.3 |  | 4.33 ± 0.56 | 4.16 ± 1.01 %ID/g | 0.19 ± 0.08 %ID/g | 0.08 ± 0.07 %ID/g | 0.06 ± 0.02 %ID/g | 0.59 ± 0.46 %ID/g | 4.42 ± 1.15 %ID/g | 0.36 ± 0.11 %ID/g | 0.07 ± 0.01 %ID/g | 0.04 ± 0.02 %ID/g | 0.4 ± 0.04 %ID/g | 0.13 ± 0.02 %ID/g | 0.96 ± 0.17 %ID/g | -2.33 ± 0.23 | CCCC[C@@H](C(=O)N[C@@H](CC(=O)O)C(=O)N[C@@H](Cc1cccc2ccccc12)C(=O)NC)N(C)C(=O)[C@H](Cc1c[nH]c2ccccc12)NC(=O)CNC(=O)[C@H](Cc1ccc(O)cc1)NC(=O)[C@H](C)NC(=O)[C@@H](CCC(=O)O)NC(=O)CN1CCN(CC(=O)O)CCN(CC(=O)O)CCN(CC(=O)O)CC1 [[^111In]In-DOTA-MGS5[NHCH3], metal not drawn] | fraction unbound at 24 h, 500 pmol/mL [2]: 0.591 |
